Test results: patent publication US20080274913A1, “Multiplex Array Useful for Assaying Protein-Protein Interaction” (priority 2005, published 2008)
Read-outs that look alike come from different tables or passages of the source.

Assays:
[1] = target: T1, human Type I Interferon Receptor (Homo sapiens, UniProt P17181+P48551); assay: IFNAR1-tTA / IFNAR2.2-TEV luciferase reporter assay in HTL5B8.1 cells; format: cell-based; conditions: 5000 U/ml, 18-20 hours
T1 sequence (P17181 28-557): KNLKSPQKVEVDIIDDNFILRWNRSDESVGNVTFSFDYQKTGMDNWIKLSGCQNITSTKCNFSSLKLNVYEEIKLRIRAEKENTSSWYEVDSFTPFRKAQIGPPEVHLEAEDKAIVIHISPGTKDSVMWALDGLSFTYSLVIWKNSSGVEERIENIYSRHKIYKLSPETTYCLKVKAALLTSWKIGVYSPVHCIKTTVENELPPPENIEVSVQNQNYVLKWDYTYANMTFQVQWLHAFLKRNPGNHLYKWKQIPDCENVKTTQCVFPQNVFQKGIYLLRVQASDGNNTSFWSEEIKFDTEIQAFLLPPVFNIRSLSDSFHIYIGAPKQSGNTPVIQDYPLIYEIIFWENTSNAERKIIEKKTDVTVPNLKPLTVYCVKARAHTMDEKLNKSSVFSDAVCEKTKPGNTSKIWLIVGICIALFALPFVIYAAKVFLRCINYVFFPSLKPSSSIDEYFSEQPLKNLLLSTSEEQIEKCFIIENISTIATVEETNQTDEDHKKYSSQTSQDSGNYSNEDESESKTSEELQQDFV
T1 sequence (P48551 27-515): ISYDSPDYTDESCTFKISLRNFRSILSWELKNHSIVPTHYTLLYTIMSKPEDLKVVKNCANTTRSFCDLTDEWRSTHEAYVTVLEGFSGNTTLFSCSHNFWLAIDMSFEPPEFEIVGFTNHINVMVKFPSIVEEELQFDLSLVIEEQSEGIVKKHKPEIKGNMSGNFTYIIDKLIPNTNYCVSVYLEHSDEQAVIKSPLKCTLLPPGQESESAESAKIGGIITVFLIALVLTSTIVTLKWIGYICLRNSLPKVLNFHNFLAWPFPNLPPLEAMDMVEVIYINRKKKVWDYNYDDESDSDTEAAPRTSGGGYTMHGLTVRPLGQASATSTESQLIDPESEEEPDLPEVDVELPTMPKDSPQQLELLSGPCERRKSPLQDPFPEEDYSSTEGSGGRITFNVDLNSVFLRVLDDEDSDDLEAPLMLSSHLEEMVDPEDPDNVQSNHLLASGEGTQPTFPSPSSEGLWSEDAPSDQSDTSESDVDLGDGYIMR

[2] = target: T1, human Type I Interferon Receptor; assay: IFNAR1-GAL4-NF-κB / IFNAR2.2-TEV luciferase reporter assay in CHO-K1 cells; format: cell-based; design: expressed in transfected cells; host or cells: CHO-K1; CMV-STAT1, CMV-STAT2 and pFR-Luc co-transfected
ADRB1 = ADRB1 (Homo sapiens, UniProt P08588); conditions: for inhibition of receptor response by antagonist: FIG. 11F
ADRA2A = target: T2, ADRA2A (Homo sapiens, UniProt P08913); conditions: antagonist experiments, FIGS. 11F to 11J
T2 sequence (P08913 1-465): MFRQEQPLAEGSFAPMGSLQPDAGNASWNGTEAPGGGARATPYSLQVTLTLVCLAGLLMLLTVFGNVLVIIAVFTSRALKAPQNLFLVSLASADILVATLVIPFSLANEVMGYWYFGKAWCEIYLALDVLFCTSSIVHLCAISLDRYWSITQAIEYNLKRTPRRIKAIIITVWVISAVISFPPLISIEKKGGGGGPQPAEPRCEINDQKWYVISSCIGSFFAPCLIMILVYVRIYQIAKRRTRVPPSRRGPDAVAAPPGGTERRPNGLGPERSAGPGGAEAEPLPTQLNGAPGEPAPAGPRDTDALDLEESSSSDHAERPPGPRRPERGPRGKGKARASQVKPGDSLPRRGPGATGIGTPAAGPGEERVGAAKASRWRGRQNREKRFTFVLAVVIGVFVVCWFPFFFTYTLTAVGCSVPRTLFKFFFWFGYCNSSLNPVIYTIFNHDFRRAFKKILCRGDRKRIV

ADRA2B = target: T3, ADRA2B (Homo sapiens, UniProt P18089); conditions: antagonist experiments, FIGS. 11F to 11J
T3 sequence (P18089 1-450): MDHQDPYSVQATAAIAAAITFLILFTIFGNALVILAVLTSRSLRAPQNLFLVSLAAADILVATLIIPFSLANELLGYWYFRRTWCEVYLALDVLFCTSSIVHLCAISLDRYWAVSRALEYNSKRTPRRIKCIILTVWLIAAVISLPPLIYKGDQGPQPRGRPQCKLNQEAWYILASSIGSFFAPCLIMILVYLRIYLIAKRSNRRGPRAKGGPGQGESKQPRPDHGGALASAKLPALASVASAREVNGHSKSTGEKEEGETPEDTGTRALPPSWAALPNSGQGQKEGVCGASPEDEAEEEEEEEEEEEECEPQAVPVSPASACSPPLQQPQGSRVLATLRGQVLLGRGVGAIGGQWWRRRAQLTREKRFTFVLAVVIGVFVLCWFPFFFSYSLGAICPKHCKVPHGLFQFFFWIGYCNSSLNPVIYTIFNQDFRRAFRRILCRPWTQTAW

ADRA2C = target: T4, ADRA2C (Homo sapiens, UniProt P18825)
T4 sequence (P18825 1-462): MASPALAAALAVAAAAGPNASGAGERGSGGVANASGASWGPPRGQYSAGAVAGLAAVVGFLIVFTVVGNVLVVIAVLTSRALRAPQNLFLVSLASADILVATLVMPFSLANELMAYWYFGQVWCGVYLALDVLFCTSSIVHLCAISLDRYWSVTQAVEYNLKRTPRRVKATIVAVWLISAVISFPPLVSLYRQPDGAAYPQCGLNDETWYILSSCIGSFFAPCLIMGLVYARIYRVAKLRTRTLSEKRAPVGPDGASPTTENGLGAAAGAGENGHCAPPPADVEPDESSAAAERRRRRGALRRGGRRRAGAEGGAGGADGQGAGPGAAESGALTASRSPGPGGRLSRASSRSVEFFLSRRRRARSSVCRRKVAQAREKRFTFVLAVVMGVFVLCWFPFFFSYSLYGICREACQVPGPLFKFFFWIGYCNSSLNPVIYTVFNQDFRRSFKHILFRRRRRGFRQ

ADRA1A = ADRA1A (Homo sapiens, UniProt P35348); conditions: 10 μM, low efficiency cleavage site
[3] = target: chemokine (C-C motif) receptor 5 (CCR5) (Homo sapiens, UniProt P51681); assay: CCR5-tTA reporter assay in clone 34 cells; format: cell-based; conditions: 1 μg/ml; low efficiency cleavage site
Text: α Constructs were also made to establish an assay for the G protein coupled chemokine (C—C motif) receptor 5 (CCR5). The CCR5 coding region (Genbank Accession Number: NM_000579) (SEQ ID NO: 32) was modified to place Not I site at the 5′ end and replace the stop codon with a BamHI site using PCR with the primers
The first modified coding region was cut with ClaI and BamHI and the second was cut with BsaI and ClaI. Both fragments were ligated into the AVPR2-tTA constructs described supra, which had been cut with EcoRI and BamHI. This replaced the entire coding sequence of AVPR2 with the coding sequence of CCR5.
Assays were carried out using 1 μg/ml “Regulated on Activation, Normal T-Cell Expressed and Secreted” (RANTES), a known agonist for CCR5.

ADRB2 [4] = target: T5, ADRB2 (Homo sapiens, UniProt P07550); format: cell-based; conditions: ADRB2-tTA with low efficiency cleavage site; clone 41 cells
ADRB2 [5] = target: T5, ADRB2
[6] = target: epidermal growth factor receptor (EGFR) (Homo sapiens, UniProt P00533); assay: EGFR-tTA / PLC Gamma1-TEV luciferase reporter assay in HTL5B8.1 cells; format: cell-based; conditions: 100 ng/ml; six hours
[7] = target: CCR5-tTA fusion construct containing the low efficiency cleavage site (UniProt P51681); assay: cell-based or functional assay
[8] = target: human Type I Interferon Receptor (IFNAR1-TEV-NIa-Pro cleavage (L)-tTA with IFNAR2.2-TEV, in HTL5B8.1 cells) (human; tobacco etch virus) (UniProt P17181); assay: cell-based or functional assay
[9] = target: DRD2-GRPR 42aa Tail-tTA fusion construct containing the low efficiency cleavage site (UniProt P14416); assay: cell-based or functional assay
[10] = target: serotonin receptor 1a (HTR1A) (Homo sapiens, UniProt P08908); format: cell-based; conditions: 10 μM; low efficiency cleavage site
Text: A similar set of constructs were made to establish an assay for the G protein coupled serotonin receptor 1a (HTR1A).

[11] = target: dopamine 2 receptor (DRD2) (Homo sapiens, UniProt P14416); conditions: 10 μM, medium efficiency cleavage site
DRD2 [12] = target: T6, DRD2 (Homo sapiens, UniProt P14416); conditions: 10 μM; DRD2-AVPR2 Tail-tTA, low efficiency cleavage site
ADRB2 [13] = target: T5, ADRB2; conditions: 1 μM each agonist; mixed clone 41 and clone 1H10 cells; about 24 hours
DRD2 [14] = target: T6, DRD2; conditions: 1 μM each agonist; mixed clone 41 and clone 1H10 cells; about 24 hours
DRD2 [15] = target: DRD2 (Homo sapiens, UniProt P14416+P30550); conditions: μM dopamine; DRD2-GRPR 42aa Tail-tTA, low efficiency cleavage site
[16] = target: EGFR-TEV-NIa-Pro cleavage (Leu)-tTA (human) (UniProt P00533); assay: cell-based or functional assay

Chain of ADRB1 (P08588 whole entry): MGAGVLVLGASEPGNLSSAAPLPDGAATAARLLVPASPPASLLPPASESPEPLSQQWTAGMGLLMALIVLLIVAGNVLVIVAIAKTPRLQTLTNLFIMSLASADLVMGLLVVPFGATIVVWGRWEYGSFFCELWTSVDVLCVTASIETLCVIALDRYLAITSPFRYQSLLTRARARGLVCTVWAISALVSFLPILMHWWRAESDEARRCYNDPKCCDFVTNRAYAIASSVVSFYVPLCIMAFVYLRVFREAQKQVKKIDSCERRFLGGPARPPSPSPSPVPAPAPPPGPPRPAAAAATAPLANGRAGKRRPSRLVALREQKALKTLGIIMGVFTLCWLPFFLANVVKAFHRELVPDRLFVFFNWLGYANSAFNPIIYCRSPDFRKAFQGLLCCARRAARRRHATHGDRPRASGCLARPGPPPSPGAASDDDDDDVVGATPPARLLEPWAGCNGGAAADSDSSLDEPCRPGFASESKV
Chain of dopamine 2 receptor (DRD2) (P14416 whole entry): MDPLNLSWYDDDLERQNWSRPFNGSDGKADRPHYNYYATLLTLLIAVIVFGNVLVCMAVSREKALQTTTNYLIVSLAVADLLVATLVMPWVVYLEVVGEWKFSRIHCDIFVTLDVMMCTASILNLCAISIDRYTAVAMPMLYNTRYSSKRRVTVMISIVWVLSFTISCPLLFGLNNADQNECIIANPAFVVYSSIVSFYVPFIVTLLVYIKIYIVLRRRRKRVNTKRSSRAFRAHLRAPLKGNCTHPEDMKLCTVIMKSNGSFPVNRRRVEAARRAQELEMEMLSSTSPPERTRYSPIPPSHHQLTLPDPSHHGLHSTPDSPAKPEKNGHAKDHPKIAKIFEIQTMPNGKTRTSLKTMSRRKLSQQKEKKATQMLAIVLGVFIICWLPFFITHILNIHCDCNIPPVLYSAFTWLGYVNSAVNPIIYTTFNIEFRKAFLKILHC
Chain of CCR5-tTA fusion construct containing the low efficiency cleavage site (P51681 whole entry, the tested form may be a part): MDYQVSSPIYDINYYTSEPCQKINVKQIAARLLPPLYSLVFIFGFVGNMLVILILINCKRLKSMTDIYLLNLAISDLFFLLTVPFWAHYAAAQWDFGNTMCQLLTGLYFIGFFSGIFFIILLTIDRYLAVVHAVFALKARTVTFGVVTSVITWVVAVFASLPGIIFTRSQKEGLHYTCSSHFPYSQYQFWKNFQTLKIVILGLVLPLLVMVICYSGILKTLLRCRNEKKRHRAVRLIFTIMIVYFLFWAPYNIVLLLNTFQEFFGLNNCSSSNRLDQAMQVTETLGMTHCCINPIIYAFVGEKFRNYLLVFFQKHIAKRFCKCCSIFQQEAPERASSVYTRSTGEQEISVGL
Chain of DRD2-GRPR 42aa Tail-tTA fusion construct containing the low efficiency cleavage site (P14416 other isoform, or with tags, fused parts or gaps): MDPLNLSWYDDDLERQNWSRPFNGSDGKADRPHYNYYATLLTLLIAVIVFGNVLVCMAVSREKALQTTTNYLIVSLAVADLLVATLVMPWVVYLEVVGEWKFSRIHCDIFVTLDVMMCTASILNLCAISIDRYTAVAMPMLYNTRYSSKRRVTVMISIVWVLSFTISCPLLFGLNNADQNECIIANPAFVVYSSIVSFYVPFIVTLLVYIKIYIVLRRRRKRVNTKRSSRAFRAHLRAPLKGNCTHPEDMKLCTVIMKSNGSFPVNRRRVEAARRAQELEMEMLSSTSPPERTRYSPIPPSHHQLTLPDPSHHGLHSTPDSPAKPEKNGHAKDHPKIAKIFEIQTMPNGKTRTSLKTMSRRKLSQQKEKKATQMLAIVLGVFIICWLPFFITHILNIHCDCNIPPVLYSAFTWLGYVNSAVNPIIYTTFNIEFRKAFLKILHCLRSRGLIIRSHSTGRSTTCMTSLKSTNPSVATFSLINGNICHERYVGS

In the case of IFN-α, the “increase in reporter gene activity” value [1] was 15 fold, the “increase in reporter gene activity” value ([2]; 5000 U/ml, 6 hours, CHO-K1 cells with reporter, IFNAR and STAT constructs) was 3 fold and the “effect on reporter gene activity” value ([2]; CHO-K1 cells transfected with the reporter and control plasmids) was “no effect”.

For `C=CCc1ccccc1OCC(O)CNC(C)C` (centres unmarked) [alprenolol], the “inhibition of receptor response by antagonist” value (“inhibition of receptor response” below) (ADRB1) was “markedly inhibited”, the “inhibition of receptor response” value (ADRA2A) was “only a modest inhibitory effect at the highest concentrations tested” and the “inhibition of receptor response” value (ADRA2B) was “only a modest inhibitory effect at the highest concentrations tested”. For the same molecule, the “inhibition of receptor response” value (ADRA2C; antagonist experiments, FIGS. 11F to 11J) was “only a modest inhibitory effect at the highest concentrations tested”.

In the case of `CNC[C@H](O)c1ccc(O)c(O)c1` [epinephrine], the “maximal response, induction of reporter gene expression over the background” value (from here on “maximal response … over the background”) (ADRA1A; ADRA1A-GRPR 23aa Tail-tTA) was “approximately 102 fold” and the “maximal response, increase in reporter gene activity” value (ADRA1A; ADRA1A-GRPR 42aa Tail-tTA) was “approximately 14 fold”.

In the case of “RANTES: Regulated on Activation, Normal T-Cell Expressed and Secreted, a known agonist for CCR5”, the “maximal response … over the background” value [3] was “approximately 40 fold”.

`Nc1ncnc2c1ncn2[C@@H]1O[C@H](COP(=O)(O)OP(=O)(O)OP(=O)(O)O)[C@@H](O)[C@H]1O` [ATP] was tested, and the “induction of reporter gene activity by an agonist of other, endogenous GPCRs (P2Y1, P2Y2)” value (ADRB2 [4]) was “Stimulation of another GPCR pathway was irrelevant”.

`COC(=O)[C@@H]1[C@H]2C[C@H]3c4[nH]c5ccccc5c4CCN3C[C@@H]2CC[C@@H]1O` [yohimbine] was tested, and the “inhibition of receptor response” value (ADRB1) was “no effect” and the “inhibition of receptor response” value (ADRB2 [5]; FIG. 11G) was “inhibition at only the very highest concentrations tested”.

In the case of “human Transforming Growth Factor—Alpha: human Transforming Growth Factor-Alpha, EGFR agonist”, the “increase of luciferase reporter gene activity” value [6] was 18.3 fold.

With `Brc1c(NC2=NCCN2)ccc2nccnc12` [UK14,304] the “agonist effect on the receptor” value (ADRB1; any concentration used, FIG. 11A) was “no effect”, the “agonist effect on the receptor” value (ADRB2 [5]; any concentration used, FIG. 11B) was “no effect” and the “agonist response, UK14,304 compared with isoproterenol” value (ADRA2C; varying concentrations of agonist) was “respond to much lower concentration of UK14,304 than isoproterenol”.

Molecule “Regulated on Activation, Normal T-Cell Expressed and Secreted (RANTES) (from UniProt P13501 24-91) (ligand)” has a maximal fold induction of reporter gene expression over the background, 1 µg/ml RANTES [7] of 40 fold.

Work on human interferon-alpha (ligand) yielded a fold increase in reporter gene activity (luciferase), 5000 U/ml IFN-α [8] of 15 fold.

Molecule “ARRB2-TEV-NIa protease fusion (from UniProt P32121 1-409)” has a fold increase in reporter gene activity (luciferase), dopamine [9] of 30 fold.

`NCCc1c[nH]c2ccc(O)cc12` [serotonin] was tested, and the “maximal response, induction of reporter gene expression over background level” value [10] was 4.6 fold.

`Cl.NCCc1ccc(O)c(O)c1` [dopamine, dopamine HCl] was tested, and the “maximal response … over the background” value ([11]; ARRB1-TEV-NIa protease fusion) was 2.1 fold, the “maximal response … over the background” value ([11]; ARRB2-TEV-NIa protease fusion) was 2.7 fold and the “maximal response … over the background” value (DRD2 [12]) was “approximately 60 fold”. The “induction of beta-galactosidase reporter gene activity” value (ADRB2 [13]) was “remained unchanged”, the “induction of luciferase activity” value (DRD2 [14]) was 3.5 fold and the “maximal response, increase in reporter gene activity” value (DRD2 [15]) was “approximately 30 fold”.

Molecule “human Transforming Growth Factor-Alpha (from UniProt P01135 40-89) (ligand)” has a fold increase of luciferase reporter gene activity, 100 ng/ml human Transforming Growth Factor-Alpha [16] of 18.3 fold.

In the case of “human interferon-beta (from UniProt P01574 22-187) (ligand)”, the fold increase in reporter gene activity (luciferase), 5000 U/ml IFN-β [8] was 10 fold.
